Experimental data published in patent US20230012172A1, “COMPOSITIONS AND METHODS FOR TREATMENT OF PLATINUM-BASED CHEMOTHERAPEUTIC RESISTANT TUMORS” (The George Washington University, priority 2020, published 2023).

Tests used:
IGROV1 CR cells = assay: Cell viability assay (SRB) in IGROV1 CR cells; assay type: cell-based, human; conditions: 150 nM UA, IGROV1 CR cells
Procedure: (§1) Cell culture and resistance cell line establishment. IGROV1 cells, U2OS (HTB-96; ATCC), HEK293T (CRL-11268; ATCC) and SKOV3 cells (HTB-77; ATCC) were cultured at 37° C. in DMEM with 10% Fetal Bovine Serum (FBS). PEO1 (10032308; Sigma-Aldrich), PEO4 (10032309; Sigma-Aldrich), PEO14 (10032311; Sigma-Aldrich) and PE023 cells (10032313; Sigma-Aldrich) were cultured at 37° C. in RPMI-1640 with 10% FBS. OV90 (CRL-11732; ATCC) was cultured in medium containing 1:1 MCDB 105 (Sigma) and M199 (Sigma) supplemented with 10% FBS at 37 ° C. All the cells were cultured at in a humidified incubator with 5% CO2 atmosphere. Cisplatin resistant cell lines, including SKOV3 CR, IGROV1 CR and OV90 CR, were generated using an approach similar to that reported in Zhou et al., (2018) Oncogene 37, 3981-3997, the disclosure of which is incorporated herein in its entirety.
(§2) Cell viability assay. Cells were seeded at 3,000 cells/well in 96-well plates were treated with drugs, followed by incubation for 48 hours, after which cell viability was detected using Sulforhodamine B (SRB) assay (64). Absorbance at 510 nm was detected using a SpectraMax Reader (Molecular Devices) and analyzed with SoftMax Analysis Software (Molecular Devices). Combinational index (CI) values were calculated using CompuSyn software.

SENP1 = target: T1, SENP1 (Homo sapiens, UniProt Q9P0U3); assay: SENP1 inhibition in IGROV1 cells (SUMOylated JAK2, Western blot); assay type: cell-based; parameters: endogenous in cells; host or cells: IGROV1; conditions: incubated 48 hours, read-out: inhibited deSUMOylation of JAK2 with IC50
T1 sequence (Q9P0U3 1-644): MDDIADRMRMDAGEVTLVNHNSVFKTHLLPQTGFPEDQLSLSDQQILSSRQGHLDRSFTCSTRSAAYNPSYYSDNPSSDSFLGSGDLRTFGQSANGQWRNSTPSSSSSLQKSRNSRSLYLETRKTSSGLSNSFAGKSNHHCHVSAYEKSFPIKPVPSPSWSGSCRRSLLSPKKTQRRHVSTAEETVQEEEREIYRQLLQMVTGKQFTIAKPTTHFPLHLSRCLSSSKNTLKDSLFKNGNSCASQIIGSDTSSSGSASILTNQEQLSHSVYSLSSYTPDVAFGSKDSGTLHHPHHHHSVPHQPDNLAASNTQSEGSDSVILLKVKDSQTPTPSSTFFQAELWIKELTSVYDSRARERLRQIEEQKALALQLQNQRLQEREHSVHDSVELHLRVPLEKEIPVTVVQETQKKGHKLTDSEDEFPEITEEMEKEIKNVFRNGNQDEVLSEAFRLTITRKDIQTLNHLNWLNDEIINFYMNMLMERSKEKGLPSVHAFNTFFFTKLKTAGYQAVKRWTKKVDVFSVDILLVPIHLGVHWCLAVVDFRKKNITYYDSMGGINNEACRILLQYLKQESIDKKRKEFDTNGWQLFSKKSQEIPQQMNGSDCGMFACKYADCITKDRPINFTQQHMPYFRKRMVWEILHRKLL
Procedure: FIGS. 11A-11L depict images illustrating identification of a novel potent SENP1 inhibitor, UA. FIGS. 11A and 11B show Mc (FIG. 11A) and UA (FIG. 11B) inhibited SENP1 activity in vivo. IGROV1 cells were incubated with Mc or UA for 48 hours and harvested for Western blot for indicated proteins. […]. Intensity of SUMOylated JAK2 in B was measured by Quantity One software. FIGS. 11D and 11E show Mc (FIG. 11D) and UA (FIG. 11E) inhibited SENP1 activity in vitro. Recombinant His-JAK2 was SUMOylated as in FIG. 2F, followed by incubation with recombinant GST-SENP1 together with Mc or UA for 3 hours (h). […]. Intensity of SUMOylated JAK2 was measured by Quantity One software. […] SENP1 stability was analyzed using Western blot against SENP1 antibody in IGROV1 cells. […] SENP1 stability was analyzed by using Western blot against SENP1 antibody. […] Green: UA; Salmon: interface. Right panel, active residues of SENP1 for SENP1:UA complex. Green: UA; Salmon: active residues. […] Stability of SENP1-C603A was analyzed by using Western blot against SENP1 antibody
To determine the functional consequence of SENP1-JAK2 interaction, it was examined whether inhibition of SENP1 affected SUMOylation of JAK2. To this end, JAK2 was immunoprecipitated and the SUMOylation level of JAK2 was evaluated using an antibody against SUMO2/3 in SENP1 depleted cells.

PEO4 cells = assay: Cell viability assay (SRB) in PEO4 cells; assay type: cell-based
Procedure: as §1, §2

SKOV3 CR cells = assay: Cell viability assay (SRB) in SKOV3 CR cells; assay type: cell-based; conditions: SKOV3 CR cells
Procedure: as §1, with “Sigma-Aldrich) and PE023 cells (10032313;” left out, “ATCC) was cultured in medium containing 1:1 MCDB 105 (Sigma) and M199 (Sigma) supplemented with 10% FBS at 37 ° C.” left out, “entirety. Cell viability assay. Cells were seeded at 3,000 cells/well in 96-well plates were treated with drugs, followed by incubation for 48 hours, after which cell viability was detected using Sulforhodamine B (SRB) assay (64). Absorbance at 510 nm was detected using a SpectraMax Reader (Molecular Devices) and analyzed with SoftMax Analysis Software (Molecular Devices). Combinational index (CI) values were calculated using CompuSyn software.” for “entirety.”

PE023 cells = assay: Cell viability assay (SRB) in PE023 cells; assay type: cell-based
Procedure: as §1, §2

Compound	CI value with cisplatin, cell survival (IGROV1 CR cells)	IC50 (SENP1) [µM]	re-sensitization to cisplatin (PEO4 cells)	synergy with cisplatin (combination index) (PEO4 cells)	re-sensitization to cisplatin (SKOV3 CR cells)	synergistic effects with cisplatin (combination index) (SKOV3 CR cells)	re-sensitization to cisplatin (PE023 cells)	synergy with cisplatin (combination index) (PE023 cells)
C[C@H]1[C@H](C)CC[C@]2(C(=O)O)CC[C@]3(C)C(=CC[C@@H]4[C@@]5(C)CC[C@H](O)C(C)(C)[C@@H]5CC[C@]43C)[C@H]12 [UA, ursolic acid]	< 1	0.24	–	–	–	–	–	–
CC1(C)CC[C@]2(C(=O)O)CC[C@]3(C)C(=CC[C@@H]4[C@@]5(C)CC[C@H](O[C@@H]6O[C@H](C(=O)O)[C@@H](O)[C@H](O[C@@H]7OC[C@@H](O)[C@H](O)[C@H]7O)[C@H]6O)C(C)(C)[C@@H]5CC[C@]43C)[C@@H]2C1 [Mc, Momordin Ic]	–	31.8	re-sensitized	synergy	re-sensitized	synergy	re-sensitized	synergy
